The results in this text go back to US20260209215A1, “GLYCINE DERIVATIVES WITH P2X4 RECEPTOR-BLOCKING ACTIVITY AS DIAGNOSTICS AND FOR THE TREATMENT OF PAIN, INFLAMMATION, CANCER, AND OTHER P2X4 RECEPTOR-RELATED DISEASES” (RHEINISCHE-FRIEDRICH-WILHELMS-UNIVERSITÄT BONN, priority 2022, published 2026).

The IC50 is the point on the concentration scale where inhibition reaches its midpoint. A low value points to greater potency.

This assay concerns the target T1, P2X4 receptor (Homo sapiens, UniProt Q99571).
T1 construct: expressed in transfected cells; host or cells: 1321N1 astrocytoma cells, retroviral vector pQCXIN, G418 selection, monoclones
T1 sequence (Q99571 1-388): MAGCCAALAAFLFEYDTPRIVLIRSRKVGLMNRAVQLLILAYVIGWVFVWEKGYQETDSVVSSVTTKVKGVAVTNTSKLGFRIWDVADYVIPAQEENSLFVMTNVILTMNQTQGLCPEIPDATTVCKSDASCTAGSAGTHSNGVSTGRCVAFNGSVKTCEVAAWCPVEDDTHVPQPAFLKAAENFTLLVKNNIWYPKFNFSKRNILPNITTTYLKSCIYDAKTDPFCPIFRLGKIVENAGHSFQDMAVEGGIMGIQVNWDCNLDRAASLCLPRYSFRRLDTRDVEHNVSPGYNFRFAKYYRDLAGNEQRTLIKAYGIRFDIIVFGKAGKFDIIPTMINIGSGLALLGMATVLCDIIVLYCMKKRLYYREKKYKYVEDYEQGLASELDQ
Description: Measurement of Ca2+ influx in transfected 1321N1 astrocytoma cells (P2X4 inhibitory potency). The class given is cell-based. The settings on record: agonist-mediated Ca2+ influx, FLUO-4, 1321N1 astrocytoma cells; antagonists added 30 min before agonist. The essentials: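 Stable 1321N1 astrocytoma cells expressing human P2X4, loaded with FLUO-4 AM (2.4 μM) in HBSS/HEPES pH 7.3 for 1 h at 23 °C. Antagonists added 30 min before agonist; fluorescence at 520 nm recorded for 30 s. Compounds tested at 7–8 concentrations spanning three log units.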

Compound `CCc1noc(-c2cc(NCC(=O)c3c[nH]c4cc(OC)ccc34)c(OC)cc2Br)n1` [Example 109, 2-((4-bromo-5-(3-ethyl-1,2,4-oxadiazol-5-yl)-2-methoxy-phenyl)amino)-1-(6-methoxy-1H-indol-3-yl)ethan-1-one] yielded an IC50 of 40 to 69 nM.

In the case of `Cc1nsc(-c2ccc(C)c(NCC(=O)N3CCc4c3cccc4N3C(=O)C=CC3=O)c2)n1` [Example 79, 1-(1-((2-methyl-5-(3-methyl-1,2,4-thiadiazol-5-yl)phenyl)-glycyl)indolin-4-yl)-1H-pyrrole-2,5-dione], the IC50 is 0.1 to 19 nM.

In turn, `Cc1nsc(-c2ccc(C)c(NCC(=O)N3CCc4c(NC(=O)[C@H](O)[C@@H](O)C(=O)O)cccc43)c2)n1` [Example 82, (2R,3R)-2,3-dihydroxy-4-((1-((2-methyl-5-(3-methyl-1,2,4-thiadiazol-5-yl)phenyl)-glycyl)indolin-4-yl)amino)-4-oxobutanoic acid] had an IC50 of 70 to 99 nM.
